Laboratory results: PMC6096457, “Modified translationally controlled tumor protein-derived protein transduction domain enhances nasal delivery of exendin-4 as shown with insulin” (Drug Delivery, 2018)

Assay: Visual inspection for cloudiness (turbidity) and precipitation
Type: physicochemical
Settings: mixtures in 10 mM phosphate buffer pH 6.4
From the text: All exendin-4/PTD mixtures were clear.

Sequence: MIIFRLLAYHKK [TCTP-PTD 13M3, substitution S9Y of TCTP-PTD 13M2]
- cloudiness (turbidity) and precipitation: did not form any precipitations
